pIC50: −log10 of the molar value.
How the values were obtained:
Na^+,K^+ -ATPase [1] = target: T1, Na^+,K^+ -ATPase (Homo sapiens, UniProt P05023); experiment: inhibition of the activity of purified Na^+,K^+ -ATPase (hydrolysis of ^32 P-ATP); type: biochemical; settings: for IC50: purified Na^+,K^+ -ATPase, ^32 P-ATP hydrolysis, read-out: Inhibitory Activity -log IC50 (converted)
Na^+,K^+ -ATPase [2] = target: T1, Na^+,K^+ -ATPase; experiment: displacement of specific ^3 H-ouabain binding from purified Na^+,K^+ -ATPase receptor; settings: for IC50: read-out: Binding ^3 H-Ouab. Displacement -log IC50 (converted)
[3] = literature report; cited from earlier work
Na^+,K^+ -ATPase [4] = settings: literature report; cited from earlier work
[5] = prevention of development of hypertension, 5-week oral treatment, tail cuff SBP and HR; type: in vivo; settings: 5 week-treatment, 20 mg/Kg/os daily in Methocel 0.5% w/v, 7 rats (MHS); for SBP: controls 173 +/- 4.5; for HR: controls 382 +/- 8.3

CO/N=C/[C@H]1CC[C@]2(O)[C@@H]3CC[C@@H]4C[C@@H](O)CC[C@]4(C)[C@H]3CC[C@]12C [Comp. I-aa, (E)-17β-Methoxyiminomethyl-5β-androstane-3β,14β-diol] showed a pIC50 (Na^+,K^+ -ATPase [1]) of 4.50 and an IC50 (Na^+,K^+ -ATPase [2]) of 3980 nM.
CO/N=C/[C@H]1CC[C@]2(O)[C@@H]3CC[C@@H]4C[C@@H](OCCCN)CC[C@]4(C)[C@H]3CC[C@]12C [Comp. I-aq, (E)-3β-(3-Aminopropoxy)-17β-methoxyiminomethyl-5β-androstane-14β-ol] gave a pIC50 (Na^+,K^+ -ATPase [1]) of 4.80 and an IC50 (Na^+,K^+ -ATPase [2]) of 631 nM.
With CN(C)CCO/N=C/[C@H]1CC[C@]2(O)[C@@H]3CC[C@@H]4C[C@@H](OCCN5CCCC5)CC[C@]4(C)[C@H]3CC[C@]12C [Comp. I-au, (E)-3β-(2-(1-Pyrrolidinyl)ethoxy)-17β-(2-dimethylaminoethoxyimino)methyl-5β-androstane-3β,14β-diol] the IC50 (Na^+,K^+ -ATPase [1]) was 398 nM and the pIC50 (Na^+,K^+ -ATPase [2]) was 7.30.
Compound C[C@]12CC[C@H](O)C[C@H]1CC[C@@H]1[C@@H]2CC[C@]2(C)[C@@H](/C=N/OCCN)CC[C@]12O [Comp. I-ab, (E)-17β-(2-Aminoethoxyimino)methyl-5β-androstane-3β-diol] has an IC50 (Na^+,K^+ -ATPase [1]) of 1580 nM and an IC50 (Na^+,K^+ -ATPase [2]) of 79.4 nM.
For C[C@]12CC[C@H](O)C[C@H]1CC[C@@H]1[C@@H]2CC[C@]2(C)C(=NNC(=N)N)CC[C@]12O [17-guanidinoimino-5β-androstane-3β,14β-diol], the positive inotropic activity [3] is listed as “weak positive inotropic agents” and the “inhibition of Na^+,K^+-ATPase” value (Na^+,K^+ -ATPase [4]) is listed as “weak inhibitors of Na^+,K^+ -ATPase”.
With CN(C)CCCO/N=C/[C@H]1CC[C@]2(O)[C@@H]3CC[C@@H]4C[C@@H](O)CC[C@]4(C)[C@H]3CC[C@]12C [Comp. I-af, (E)-17β-(3-Dimethylaminopropoxyimino)methyl-5.β-androstane-3β,14β-diol] the pIC50 (Na^+,K^+ -ATPase [1]) was 5.60 and the IC50 (Na^+,K^+ -ATPase [2]) was 158 nM.
With CN(C)CCO/N=C/[C@H]1CC[C@]2(O)[C@@H]3CC[C@@H]4C[C@@H](OCCCN)CC[C@]4(C)[C@H]3CC[C@]12C [Comp. I-as, (E)-3β-(3-Aminopropoxy)-17β-(2-dimethylaminoethoxyimino)methyl-5β-androstane-14β-ol] the IC50 (Na^+,K^+ -ATPase [1]) was 316 nM, the IC50 (Na^+,K^+ -ATPase [2]) was 39.8 nM and the SBP [5] was 149 +/- 7.9 mm Hg. The HR [5] was 377 +/- 9.5 beats/min.
C[C@]12CC[C@H](O)C[C@H]1CC[C@@H]1[C@@H]2CC[C@]2(C)[C@@H](/C=N/OCCNC(=N)N)CC[C@]12O [Comp. I-ag, (E)-17β-(2-Guanidinoethoxyimino)methyl-5β-androstane-3β,14β-diol] gave a pIC50 (Na^+,K^+ -ATPase [1]) of 5.50 and an IC50 (Na^+,K^+ -ATPase [2]) of 158 nM.
For C[C@]12CC[C@H](O)C[C@H]1CC[C@@H]1[C@@H]2CC[C@]2(C)[C@@H](C=NO)CC[C@]12O [17β-hydroxyiminomethyl-5β-androstane-3b,14b-diol], the “inhibition of Na^+,K^+-ATPase” value (Na^+,K^+ -ATPase [4]) is listed as “not to inhibit Na^+,K^+ -ATPase”.
C/C(=N\OCCN(C)C)[C@H]1CC[C@]2(O)[C@@H]3CC[C@@H]4C[C@@H](O)CC[C@]4(C)[C@H]3CC[C@]12C [Comp. I-ai, (E)-20-(2-Dimethylaminoethoxyimino)-5β-pregnane-3β,14β-diol] gave an IC50 (Na^+,K^+ -ATPase [1]) of 2000 nM and an IC50 (Na^+,K^+ -ATPase [2]) of 79.4 nM.
With CN(C)CCO/N=C/[C@@]1(O)CC[C@]2(O)[C@@H]3CC[C@@H]4C[C@@H](O)CC[C@]4(C)[C@H]3CC[C@]12C [Comp. I-ak, (E)-17β-(2-Dimethylaminoethoxyimino)methyl-5β-androstane-3β,14β,17α-triol] the IC50 (Na^+,K^+ -ATPase [1]) was 39800 nM and the IC50 (Na^+,K^+ -ATPase [2]) was 1000 nM.
Compound CN(C)CCON=C1CC[C@@]2(C)[C@H](CC[C@@H]3[C@@H]2CC[C@]2(C)[C@@H](/C=N/OCCN(C)C)CC[C@]32O)C1 (mixture of isomers) [Comp. I-az] has an IC50 (Na^+,K^+ -ATPase [1]) of 2000 nM and an IC50 (Na^+,K^+ -ATPase [2]) of 126 nM.
With CO/N=C/[C@H]1CC[C@]2(O)[C@@H]3CC[C@@H]4C[C@@H](OCCN5CCCC5)CC[C@]4(C)[C@H]3CC[C@]12C [Comp. I-ar] the IC50 (Na^+,K^+ -ATPase [1]) was 15800 nM, the IC50 (Na^+,K^+ -ATPase [2]) was 794 nM and the SBP [5] was 158 +/- 4.0 mm Hg. The HR [5] was 385 +/- 6.4 beats/min.
With CN(C)CCO/N=C/[C@H]1CC[C@]2(O)[C@@H]3CC[C@@H]4C[C@@H](O)CC[C@]4(C)[C@H]3CC[C@]12C [Comp. I-ad, (E)-17β-(2-Dimethylaminoethoxyimino)methyl-5β-androstane-3β,14 β-diol] the pIC50 (Na^+,K^+ -ATPase [1]) was 5.90, the IC50 (Na^+,K^+ -ATPase [2]) was 39.8 nM and the SBP [5] was 148 +/- 4.0 mm Hg. The HR [5] was 375 +/- 10.5 beats/min.
For C[C@]12CC[C@H](O)C[C@H]1CC[C@@H]1[C@@H]2CC[C@]2(C)[C@@H](C=NNC(=N)N)CC[C@]12O [17β-guanidinoiminomethyl-5β-androstane-3β,14β-diol], the positive inotropic activity [3] is listed as “weak positive inotropic agents” and the “inhibition of Na^+,K^+-ATPase” value (Na^+,K^+ -ATPase [4]) is listed as “weak inhibitors of Na^+,K^+ -ATPase”.
With CN(C)CCO/N=C/[C@H]1CC[C@]2(O)[C@@H]3CC[C@@H]4CC(=NNC(=N)N)CC[C@]4(C)[C@H]3CC[C@]12C (mixture of isomers) [Comp. I-aw, 3-((EZ)-Guanidinoimino)-17β-((E)-2-dimethylaminoethoxyiminomethyl)-5β-androstane-14β-ol] the IC50 (Na^+,K^+ -ATPase [1]) was 1260 nM and the IC50 (Na^+,K^+ -ATPase [2]) was 79.4 nM.
